Reference: patent US11926580B2, “Hydropersulfide precursors” (THE JOHNS HOPKINS UNIVERSITY, priority 2018, dated 2024)
Several values for one entry are separate records, joined by “and”; a condition that tells them apart may be missing. Equal values may be shown once.

Key:
[1] = Kinetics of RSSH generation by 1H NMR with NEM trapping; format: physicochemical; details: 10% D2O
Description: FIGS. 3a and 3b provide graphs of (a) Stacked ^1H NMR spectra showing the decomposition of precursor 4d (1 mM) with NEM (20 mM) in 10% D2O, phosphate buffer (PB), pH 7.4 at 37° C. to produce RSS-NEM adduct 5a; Precursor 4d was introduced to a solution of NEM in PB at t=0 min and following equilibration and shimming, the first 1H NMR spectrum was obtained after 6 min.; and (b) The kinetics of decomposition of 4d (circles represent the —CH3 protons (Ha) of the precursor) and formation of 5a (squares represent the diasterotopic protons (Hb) of the succinimide ring of the two product diastereomers).
Next, ^1H NMR spectroscopy was used to monitor the kinetics of RSSH generation from 4d by trapping with NEM in 10% D2O, pH 7.4 buffer containing DMSO as an internal standard at 37° C. An increase in the peak intensity attributed to one of the diasterotopic protons of the succinimide ring of the two product diastereomers (Hb, δ2.99-2.91 ppm) was observed (FIG. 3a). The other diasterotopic proton (Hc, δ3.30-3.21 ppm) overlaps with N-ethylmaleamic acid (NEMA), a product derived from NEM hydrolysis. Similarly, the intensity of two methyl group protons of precursor 4d (δ1.44 and 1.41 ppm) decreased as four methyl group protons of the two diastereomers of 5a (Ha, δ1.40, 1.37 ppm and 1.40, 1.34 ppm) increased, supporting the clean conversion of 4d to 5a. The ^1H NMR peak assignments for 5a are consistent with the RSS-NEM adduct formed during S-methoxycarbonyl penicillamine disulfide (MCPD) decomposition (Scheme 1, eq. 3) in the presence of NEM.
All starting materials were of reagent grade and used without further purification. N-acetyl-D-penicillamine, N-ethylmaleimide, N-ethylmaleamic acid, and phenylcyanamide were purchased from Sigma-Aldrich and used without further purification. Thiourea and N-substituted thioureas were purchased from Alfa Aesar and Oakwood Chemicals. Deuterated solvents (Cambridge Isotope Laboratories) were used for NMR spectroscopic analyses. NMR spectra were obtained on a 400 MHz FT-NMR spectrometer. All chemical shifts are reported in parts per million (ppm) relative to residual CHCl3 (7.26 ppm for ^1H, 77.2 ppm for ^13C), residual H2O (4.79 ppm for ^1H), residual DMSO (2.50 ppm for ^1H, 39.5 for ^13C), or residual MeOH (3.31 ppm for ^1H, 49.2 ppm for ^13C). The kinetics of RSSH generation were measured using a Varian Inova 800 MHz spectrometer. UPLC-MS analysis was carried out with a Waters Acquity/Xevo-G2 UPLC-MS system equipped with an ACQUITY UPLC BEH C18 column (2.1 mm×50 mm, 1.7 μm). The mass signals for products of hydropersulfide trapping with NEM were obtained via deconvolution using MassLynx 4.1 software. The pH measurements were performed using a Fisher Scientific Accumet AB15 pH-meter. Analytical thin layer chromatography (TLC) was performed on Sigma-Aldrich silica gel on TLC A1 foils with fluorescent indicator F254 plates. Visualization was accomplished with UV light (254 nm) or staining with KMnO4. Flash column chromatography was performed using SiliaFlash P60 (230-400 mesh) silica gel. Melting points were recorded using MEL-TEMP® capillary melting point apparatus and are uncorrected.

cardiomyocyte H9c2 cells [2] = assay: Cytotoxicity / cell viability assay with Cell Counting Kit-8; format: cell-based; details: 50 μM, 24 h, CCK-8
Description: (§1) FIGS. 6a and 6b provide graphs of (a) the cell viability of cardiomyocyte H9c2 cells following incubation of the RSSH precursor 4d (50 μM) and phenylcynamide (200 μM) for 24 h; and (b) the cytoprotective effects of the RSSH precursor 4d observed following pretreatment of H9c2 cells with either 4d (50 μM) or phenylcynamide (200 μM) for 2 h, followed by hydrogen peroxide (200 μM) treatment for 2 h. Quantification of cell viability was carried out using Cell Counting Kit-8 (CCK-8). Results are expressed as the mean±SEM (n=6).
The cytotoxicity and impact on cell viability of the hydropersulfide (RSSH) precursor 4d have been examined using the cardiomyocyte H9C2 cell line and Cell Counting Kit-8 (CCK-8). A cell viability assay reveled that 4d was not cytotoxic at 50 μM ([…]).

cardiomyocyte H9c2 cells [3] = assay: Cytoprotection against hydrogen peroxide-induced cytotoxicity; format: cell-based; details: pretreatment 2 h (4d 50 μM; phenyl cyanamide 200 μM), then H2O2 200 μM 2 h, CCK-8
Description: as §1
Since hydropersulfides are reported to mitigate oxidative stress, the ability of RSSH precursor 4d to protect cardiomyocyte H9c2 cells from cytotoxicity induced by hydrogen peroxide (H2O2) was tested.

[4] = Decomposition of precursor at pH 6 and pH 8.5; format: physicochemical
Description: Based on the clean formation of hydropersulfide and aryl cyanamide during decomposition of 4d-h, the general mechanism shown in Scheme 5 is proposed. Neutralization of S-alkyl-thioisothiourea 7 (or its resonance partner 7a) occurs at pH 7.4 to produce a neutral species 8 and/or 8a, which can further undergo an elimination reaction to produce RSSH and aryl cyanamide. The elimination reaction can be initiated by either donation of the imine-nitrogen lone pair of 8 to form aryl cyanamide and RSSH (Scheme 5, eq. 2) or deprotonation of the arylamino-nitrogen proton to form RSSH and an aryl carbodiimide, which can further undergo tautomerization to afford the aryl cyanamide (Scheme 5, eq. 3). Alternately, an elimination reaction can be initiated by donation of the nitrogen lone pair of intermediate 8a to produce RSSH and aryl carbodiimide (Scheme 5, eq. 1). The decomposition of precursor 4d was examined at pH 6 and pH 8.5. […] In addition, the thermodynamic stability of the aryl cyanamide produced could contribute to the observed rate of RSSH release.

For CC(=O)NC(C(=O)O)C(C)(C)SSC(=N)Nc1ccccc1.Cl (centres unmarked) [Precursor 4d, ((1-acetamido-1-carboxy-2-methylpropan-2-yl)disulfaneyl)(phenylamino)methaniminium chloride], the “k, single-exponential fit of precursor decomposition and 5a formation” value ([1]; 4d 1 mM, NEM 20 mM, phosphate buffer pH 7.4, 37° C.) was 0.12 min⁻¹, the half-life at 1 mM ([1]; NEM, pH 7.4 buffer, 37° C., read-out: half-life of precursor) was 5.6 min and the “t1//2 (mm)” value ([1]; precursor 1 mM, NEM 20 mM, pH 7.4 phosphate buffer, 37° C.) was 5.6 ± 0.3 min. The “Hydropersulfide Yield (%) (RSS-NEM adduct)” value ([1]; precursor 1 mM, NEM 20 mM, pH 7.4 phosphate buffer, 37° C., based upon % precursor consumed) was 96% and 96 ± 1%, the “cytotoxicity (cell viability)” value (cardiomyocyte H9c2 cells [2]) was “not cytotoxic” and the “cytoprotection from H2O2-induced cytotoxicity” value (cardiomyocyte H9c2 cells [3]) was “significant cytoprotection”. The decomposition rate ([4]; pH 6 (lower pH)) was “substantially slowed” and the decomposition rate ([4]; pH 8.5 (higher pH)) was “increased”.
